Data as given in ChEMBL document CHEMBL5512632, “Unlocking the potential of 1,4-naphthoquinones: A comprehensive review of their anticancer properties” (Eur J Med Chem, 2024).
≈ marks a conversion by molar mass, not a printed value. Each block holds one compound with its values, some of them ahead of it.

Legend:
HeLa [1] = assay: Cytotoxicity against human HeLa cells incubated for 48 hrs by MTT reagent based spectrophotometric analysis; assay type: functional, cell-based
Jurkat = assay: Cytotoxicity against human Jurkat cells incubated for 48 hrs by MTT reagent based spectrophotometric analysis; assay type: functional, cell-based
AGS = assay: Antiproliferative activity against human AGS cells assessed as inhibition of cell growth incubated for 24 hrs by MTT reagent based microplate reader assay; assay type: functional
MKN-28 = assay: Antiproliferative activity against human MKN-28 cells assessed as inhibition of cell growth incubated for 24 hrs by MTT reagent based microplate reader assay; assay type: functional; conditions: MKN-28, 24 h
MKN-45 = assay: Antiproliferative activity against human MKN-45 cells assessed as inhibition of cell growth incubated for 24 hrs by MTT reagent based microplate reader assay; assay type: functional; conditions: MKN-45, 24 h
[2] = Antiproliferative activity against human SNU-216 cells assessed as inhibition of cell growth incubated for 24 hrs by MTT reagent based microplate reader assay; assay type: functional; conditions: SNU-216, 24 h
[3] = Antiproliferative activity against human SNU-484 cells assessed as inhibition of cell growth incubated for 24 hrs by MTT reagent based microplate reader assay; assay type: functional; conditions: SNU-484, 24 h
NCI-N87 = assay: Antiproliferative activity against human NCI-N87 cells assessed as inhibition of cell growth incubated for 24 hrs by MTT reagent based microplate reader assay; assay type: functional; conditions: NCI-N87, 24 h
[4] = Antiproliferative activity against human YCC-1 cells assessed as inhibition of cell growth incubated for 24 hrs by MTT reagent based microplate reader assay; assay type: functional; conditions: YCC-1, 24 h
[5] = Antiproliferative activity against human YCC-6 cells assessed as inhibition of cell growth incubated for 24 hrs by MTT reagent based microplate reader assay; assay type: functional; conditions: YCC-6, 24 h
[6] = Antiproliferative activity against human YCC-16 cells assessed as inhibition of cell growth incubated for 24 hrs by MTT reagent based microplate reader assay; assay type: functional; conditions: YCC-16, 24 h
HepG2 [7] = assay: Antiproliferative activity against human HepG2 cells assessed as inhibition of cell growth incubated for 24 hrs by MTT reagent based microplate reader assay; assay type: functional; conditions: HepG2, 24 h
Hep 3B2 = assay: Antiproliferative activity against human Hep3B cells assessed as inhibition of cell growth incubated for 24 hrs by MTT reagent based microplate reader assay; assay type: functional
Huh-7 = assay: Antiproliferative activity against human Huh-7 cells assessed as inhibition of cell growth incubated for 24 hrs by MTT reagent based microplate reader assay; assay type: functional; conditions: Huh-7, 24 h
A549 [8] = assay: Antiproliferative activity against human A549 cells assessed as inhibition of cell growth incubated for 48 hrs by MTT reagent based microplate reader assay; assay type: functional; conditions: A549, 48 h
DU-145 = assay: Antiproliferative activity against human DU-145 cells assessed as inhibition of cell growth incubated for 48 hrs by MTT reagent based microplate reader assay; assay type: functional; conditions: DU-145, 48 h
HCT-116 = assay: Antiproliferative activity against human HCT-116 cells assessed as inhibition of cell growth incubated for 48 hrs by MTT reagent based microplate reader assay; assay type: functional; conditions: HCT-116, 48 h
HeLa [9] = assay: Antiproliferative activity against human HeLa cells assessed as inhibition of cell growth incubated for 48 hrs by MTT reagent based microplate reader assay; assay type: functional
HepG2 [10] = assay: Antiproliferative activity against human HepG2 cells assessed as inhibition of cell growth incubated for 48 hrs by MTT reagent based microplate reader assay; assay type: functional; conditions: HepG2, 48 h
HT-29 = assay: Antiproliferative activity against human HT-29 cells assessed as inhibition of cell growth incubated for 48 hrs by MTT reagent based microplate reader assay; assay type: functional; conditions: HT-29, 48 h
MCF7 [11] = assay: Antiproliferative activity against human MCF7 cells assessed as inhibition of cell growth incubated for 48 hrs by MTT reagent based microplate reader assay; assay type: functional; conditions: MCF7, 48 h
PANC-1 = assay: Antiproliferative activity against human PANC-1 cells assessed as inhibition of cell growth incubated for 48 hrs by MTT reagent based microplate reader assay; assay type: functional; conditions: PANC-1, 48 h
PC-3 [12] = assay: Antiproliferative activity against human PC-3 cells assessed as inhibition of cell growth incubated for 48 hrs by MTT reagent based microplate reader assay; assay type: functional; conditions: PC-3, 48 h
U-937 = assay: Cytotoxicity against human U-937 cells assessed as reduction in cell viability incubated for 72 hrs by resazurin assay; assay type: functional, cell-based; conditions: U-937, 72 h
HL-60 [13] = assay: Cytotoxicity against human HL-60 cells incubated for 72 hrs by MTT reagent based spectrophotometric analysis; assay type: functional, cell-based; conditions: HL-60, 72 h
A549 [14] = assay: Cytotoxicity against human A549 cells incubated for 72 hrs by MTT reagent based spectrophotometric analysis; assay type: functional, cell-based; conditions: A549, 72 h
A2780 = assay: Cytotoxicity against human A2780 cells incubated for 72 hrs by MTT reagent based spectrophotometric analysis; assay type: functional, cell-based; conditions: A2780, 72 h
PC-3 [15] = assay: Cytotoxicity against human PC-3 cells incubated for 72 hrs by MTT reagent based spectrophotometric analysis; assay type: functional, cell-based; conditions: PC-3, 72 h
HL-60 [16] = assay: Cytotoxicity against human HL-60 cells assessed as reduction in cell growth incubated for 48 hrs by MTT assay; assay type: functional, cell-based; conditions: HL-60, 48 h
RPMI-8226 = assay: Cytotoxicity against human RPMI-8226 cells assessed as inhibition of cell growth incubated for 72 hrs by MTT reagent based colorimetric assay; assay type: functional; conditions: RPMI-8226, 72 h
MCF7 [17] = assay: Cytotoxicity against human MCF7 cells assessed as inhibition of cell growth incubated for 72 hrs by MTT reagent based colorimetric assay; assay type: functional; conditions: MCF7, 72 h
HepG2 [18] = assay: Cytotoxicity against human HepG2 cells assessed as inhibition of cell growth incubated for 72 hrs by MTT reagent based colorimetric assay; assay type: functional; conditions: HepG2, 72 h
MCF7 [19] = assay: Cytotoxicity against human MCF7 cells incubated for 72 hrs; assay type: functional, cell-based; conditions: MCF7, 72 h
HCC1806 = assay: Antiproliferative activity against human HCC1806 cells assessed as inhibition of cell growth incubated upto 120 hrs by MTS assay; assay type: functional, cell-based; conditions: HCC1806, 120 h
MDA-MB-231 = assay: Antiproliferative activity against human MDA-MB-231 cells assessed as inhibition of cell growth incubated upto 120 hrs by MTS assay; assay type: functional, cell-based; conditions: MDA-MB-231, 120 h
Hs-578T = assay: Antiproliferative activity against human Hs-578T cells assessed as inhibition of cell growth incubated upto 120 hrs by MTS assay; assay type: functional, cell-based
MCF7 [20] = assay: Antiproliferative activity against human MCF7 cells assessed as inhibition of cell growth incubated upto 120 hrs by MTS assay; assay type: functional, cell-based; conditions: MCF7, 120 h
[21] = Antiproliferative activity against human A875 cells assessed as inhibition of cell growth incubated for 24 hrs by MTT reagent based microplate reader assay; assay type: functional; conditions: A875, 24 h
A549 [22] = assay: Antiproliferative activity against human A549 cells assessed as inhibition of cell growth by MTT assay; assay type: functional, cell-based
[23] = Antiproliferative activity against human TT cells assessed as inhibition of cell growth incubated for 72 hrs by WST-1 assay; assay type: functional, cell-based
CCRF-CEM = assay: Antiproliferative activity against human CCRF-CEM cells assessed as inhibition of cell growth incubated for 72 hrs by resazurin assay; assay type: functional, cell-based
ADR5000 cell line = assay: Antiproliferative activity against human ADR5000 cell line assessed as inhibition of cell growth incubated for 72 hrs by resazurin assay; assay type: functional, cell-based; conditions: ADR5000, 72 h

SMILES: COc1ccc(NC2=CC(=O)c3cc4c(cc3C2=O)CCCC4(C)C)cc1
- IC50 (HeLa [1]): 10 nM
- IC50 (Jurkat): 1400 nM

- IC50 (AGS): 420 nM
- IC50 (MKN-28): 1200 nM
- IC50 (MKN-45): 820 nM
- IC50 (HepG2 [7]): 870 nM
- IC50 (Huh-7): 2840 nM
SMILES: COc1ccc(OC)c2c1C(=O)C=C(Sc1ccc3ccccc3c1)C2=O
- IC50 [2]: 890 nM
- IC50 [3]: 1440 nM
- IC50 (NCI-N87): 1530 nM
- IC50 [4]: 1300 nM
- IC50 [5]: 800 nM
- IC50 [6]: 1580 nM
- IC50 (Hep 3B2): 900 nM

- IC50 (A549 [8]): 15400 nM
- IC50 (DU-145): 8800 nM
- IC50 (HCT-116): 6500 nM
- IC50 (HeLa [9]): 21000 nM
- IC50 (HepG2 [10]): 7400 nM
- IC50 (HT-29): 2900 nM
- IC50 (MCF7 [11]): 7200 nM
- IC50 (PANC-1): 16100 nM
- IC50 (PC-3 [12]): 10000 nM
SMILES: CCCCCCCC/C=C\CCCCCCCC(=O)Oc1cccc2c1C(=O)C=C(C)C2=O

SMILES: CC(C)=CC[C@@H](OC(=O)C(C)C)C1=CC(=O)c2c(O)ccc(O)c2C1=O [ISOBUTYLSHIKONIN]
- IC50 (U-937): 50 nM

SMILES: O=C1C=C(C(O)C[N+](=O)[O-])C(=O)c2c(O)ccc(O)c21 (configuration not stated)
- IC50 (HL-60 [13]): 140 nM
- IC50 (A549 [14]): 1050 nM
- IC50 (A2780): 110 nM
- IC50 (PC-3 [15]): 90 nM

SMILES: CC(=O)N[C@H]1[C@H](OC2=C(CC=C(C)C)C(=O)c3ccccc3C2=O)O[C@H](COC(C)=O)[C@@H](OC(C)=O)[C@@H]1OC(C)=O
- IC50 (HL-60 [16]): 5300 nM

SMILES: C[P+](C1=C([O-])C(=O)c2c(F)c(F)c(F)c(F)c2C1=O)(c1ccccc1)c1cc(F)cc(F)c1 (configuration not stated)
- IC50 (RPMI-8226): 6400 nM
- IC50 (MCF7 [17]): 4600 nM
- IC50 (HepG2 [18]): 7100 nM

SMILES: CCC/C=C/C(=O)C1=C(OC)C(=O)c2cc(OC)c(OC)cc2C1=O
- IC50 (MCF7 [19]): 15000 nM

- IC50 (HCC1806): 2680 nM
- IC50 (MDA-MB-231): 3280 nM
- IC50 (MCF7 [20]): 5500 nM
SMILES: COc1ccc(OC)c2c1C(=O)C(Cl)=C(Cl)C2=O
- IC50 (Hs-578T): 1630 nM

SMILES: CC(C)=CC[C@@H](OC(=O)CCc1cc2ccccc2[nH]1)C1=CC(=O)c2c(O)ccc(O)c2C1=O
- IC50 [21]: 5 nM

- IC50 (A549 [22]): 3 µg/mL (≈ 8.56 µM)
SMILES: CC(=O)NCC1=C(Nc2ccc(O)c(C)c2)C(=O)c2ccccc2C1=O

SMILES: CC(C)=CC[C@@H](OC(=O)C=C(C)C)C1=CC(=O)c2c(O)ccc(O)c2C1=O [DIMETHYLACRYLSHIKONIN]
- IC50 [23]: 1200 nM

- IC50 (CCRF-CEM): 1900 nM
SMILES: CCOc1ccc(NC(=O)C2=C(SC(C)(C)C)C(=O)c3ccccc3C2=O)cc1
- IC50 (ADR5000 cell line): 2000 nM
